# In patent US7473669B2, “Substituted 4,5-dihydro-1,2,4-triazin-6-ones, 1,2,4-triazin-6-ones, and their use as fungicides” (priority 2005, dated 2009):
# What was measured:
# Colletotricum lagenarium = assay: Cucumber Anthracnose greenhouse one-day protectant test; type: in vivo; conditions: Cucumis sativus, 24 h, cucumber plants, one-day protectant test, 200 ppm application rate; read-out: COLLLA percent control rating
# Erysiphe cichoracaerum = assay: Cucumber Powdery Mildew greenhouse one-day protectant test; type: in vivo; conditions: 24 h, cucumber plants, one-day protectant test, 200 ppm application rate, read-out: ERYSCI percent control rating
# Leptosphaeria nodorum = assay: Glume Blotch of Wheat greenhouse one-day protectant test; type: in vivo; conditions: Parastagonospora nodorum, 24 h; wheat plants, one-day protectant test, 200 ppm application rate; read-out: LEPTNO percent control rating
# Phytophthora infestans = assay: whole plant or invertebrate; type: in vivo; conditions: in Solanum lycopersicum, 24 h, read-out: PHYTIN percent control rating, tomato plants, one-day protectant test, 200 ppm application rate
# [1] = test system: Puccinia recondita tritici; assay: Leaf Rust of Wheat greenhouse one-day protectant test; type: in vivo; conditions: 24 h, wheat plants, one-day protectant test, 200 ppm application rate, read-out: PUCCRT percent control rating
# Pyricularia oryzae = assay: whole plant or invertebrate; type: in vivo; conditions: 24 h, read-out: PYRIOR percent control rating
SMILES,pest or weed control at 200 ppm (Colletotricum lagenarium),pest or weed control at 200 ppm (Erysiphe cichoracaerum),pest or weed control at 200 ppm (Leptosphaeria nodorum),pest or weed control at 200 ppm (Phytophthora infestans),pest or weed control at 200 ppm [1],pest or weed control at 200 ppm (Pyricularia oryzae),melting point
"O=c1cnc(-c2cc(-c3ccsc3)cc(-c3ccsc3)c2)nn1CC(F)(F)F [Compound 80, 3-(3,5-dithien-3-ylphenyl)-1-(2,2,2-trifluoroethyl)-1,2,4-triazin-6(1H)-one]",0 to 49%,0 to 49%,0 to 49%,0 to 49%,50 to 79%,80 to 100%,189 to 191 °C
"CON=C(c1ccccc1)c1cccc(-c2ncc(=O)n(CC(F)(F)F)n2)c1 [Compound 94, 3-{3-[(Z)-(Methoxyimino)phenyl)methyl]phenyl}-1-(2,2,2-trifluoroethyl)-1,2,4-triazin-6(1H)-one]",0 to 49%,0 to 49%,80 to 100%,0 to 49%,80 to 100%,80 to 100%,127 to 129 °C
Cc1ccccc1-c1cccc(C2=NN(CC(F)(F)F)C(=O)C(SC3CCCCC3)N2)c1 (centres unmarked) [Compound 51],50 to 79%,0 to 49%,80 to 100%,0 to 49%,80 to 100%,80 to 100%,
O=C1CNC(c2cccc(/C=C3/CCc4ccccc43)c2)=NN1CC(F)(F)F [Compound 72],0 to 49%,0 to 49%,80 to 100%,0 to 49%,80 to 100%,80 to 100%,
CCCCN1N=C(c2cc(-c3ccsc3)cc(-c3ccsc3)c2)NCC1=O [Compound 62],0 to 49%,0 to 49%,80 to 100%,0 to 49%,0 to 49%,0 to 49%,
O=C1CNC(c2cc(Cl)cc(Cl)c2)=NN1CCO [Compound 7],0 to 49%,0 to 49%,50 to 79%,0 to 49%,50 to 79%,0 to 49%,
O=C1CNC(c2cc(Cl)cc(Cl)c2)=NN1CO [Compound 8],0 to 49%,0 to 49%,50 to 79%,0 to 49%,0 to 49%,0 to 49%,
O=C1CNC(c2cccc(-c3ccc(Cl)s3)c2)=NN1CC(F)(F)F [Compound 29],0 to 49%,0 to 49%,80 to 100%,0 to 49%,80 to 100%,50 to 79%,
O=C1CNC(c2cccc(OCc3ccccc3)c2)=NN1Cc1ccccc1 [Compound 20],0 to 49%,0 to 49%,50 to 79%,0 to 49%,80 to 100%,80 to 100%,
O=C1CNC(c2cccc(C#Cc3ccccc3)c2)=NN1CC(F)(F)F [Compound 70],0 to 49%,0 to 49%,0 to 49%,0 to 49%,0 to 49%,80 to 100%,
Cc1cc(C2=NN(CC(F)(F)F)C(=O)C(SC3CCCCC3)N2)ccc1Br (centres unmarked) [Compound 43],80 to 100%,0 to 49%,80 to 100%,80 to 100%,80 to 100%,80 to 100%,
O=C1CNC(c2cc(Cl)cc(Cl)c2)=NN1Cc1c(F)c(F)c(F)c(F)c1F [Compound 65],80 to 100%,0 to 49%,80 to 100%,0 to 49%,0 to 49%,50 to 79%,
O=C1CNC(c2cc(Br)cc(-c3ccsc3)c2)=NN1CCc1ccccc1 [Compound 69],0 to 49%,0 to 49%,50 to 79%,0 to 49%,0 to 49%,50 to 79%,
Cc1cc(C)cc(C2=NN(CCO)C(=O)CN2)c1 [Compound 2],0 to 49%,0 to 49%,0 to 49%,0 to 49%,0 to 49%,80 to 100%,
Cc1cc(C)cc(C2=NN(CC(F)(F)F)C(=O)C(SC3CCCCC3)N2)c1 (centres unmarked) [Compound 37],80 to 100%,0 to 49%,80 to 100%,0 to 49%,80 to 100%,80 to 100%,
Cc1cc(C)cc(C2=NN(CC(F)(F)F)C(=O)C(SCC(=O)O)N2)c1 (centres unmarked) [Compound 42],80 to 100%,0 to 49%,80 to 100%,0 to 49%,80 to 100%,80 to 100%,
O=C1CNC(c2ccc(Cl)c(Cl)c2)=NN1CO [Compound 9],0 to 49%,0 to 49%,80 to 100%,0 to 49%,50 to 79%,0 to 49%,
O=C1CNC(c2cccc(Oc3ncccn3)c2)=NN1CC(F)(F)F [Compound 31],0 to 49%,0 to 49%,50 to 79%,0 to 49%,0 to 49%,0 to 49%,
O=C1CNC(c2ccc(N3CCOCC3)cc2)=NN1CC(F)(F)F [Compound 58],0 to 49%,50 to 79%,0 to 49%,0 to 49%,0 to 49%,80 to 100%,
O=C1C(SC2CCCCC2)NC(c2cccc(-c3ccsc3)c2)=NN1CC(F)(F)F (centres unmarked) [Compound 55],50 to 79%,0 to 49%,80 to 100%,0 to 49%,50 to 79%,80 to 100%,
O=C1CNC(c2cc(Cl)cc(Cl)c2)=NN1CN1CCOCC1 [Compound 15],0 to 49%,0 to 49%,50 to 79%,0 to 49%,0 to 49%,80 to 100%,
O=C1CNC(c2cccc(/C=C\c3ccccc3)c2)=NN1CC(F)(F)F [Compound 71],0 to 49%,0 to 49%,80 to 100%,0 to 49%,50 to 79%,50 to 79%,
O=C1CNC(c2cccc(OCc3ccccc3)c2)=NN1CC(F)(F)F [Compound 17],80 to 100%,0 to 49%,80 to 100%,0 to 49%,80 to 100%,80 to 100%,
Cc1cc(C)cc(C2=NN(Cc3c(F)c(F)c(F)c(F)c3F)C(=O)CN2)c1 [Compound 63],0 to 49%,0 to 49%,50 to 79%,0 to 49%,0 to 49%,50 to 79%,
O=C1CNC(c2cccc(OS(=O)(=O)C(F)(F)F)c2)=NN1CC(F)(F)F [Compound 23],0 to 49%,0 to 49%,50 to 79%,0 to 49%,50 to 79%,80 to 100%,
O=C1CNC(c2cccc(Oc3ccnc(Cl)c3)c2)=NN1CC(F)(F)F [Compound 33],0 to 49%,0 to 49%,50 to 79%,0 to 49%,80 to 100%,0 to 49%,
O=C1CNC(c2ccc(-c3cc(Cl)cc(Cl)c3)nc2)=NN1CCF [Compound 34],50 to 79%,0 to 49%,80 to 100%,50 to 79%,80 to 100%,80 to 100%,
O=c1cnc(-c2cccc(C#Cc3ccccc3)c2)nn1CC(F)(F)F [Compound 92],80 to 100%,0 to 49%,50 to 79%,50 to 79%,80 to 100%,80 to 100%,
O=c1cnc(-c2ccc(Oc3cccnc3)cc2)nn1CC(F)(F)F [Compound 78],80 to 100%,0 to 49%,50 to 79%,80 to 100%,80 to 100%,80 to 100%,
Cc1cc(C)cc(C2=NN(CC(F)(F)F)C(=O)C(SCc3ccccc3)N2)c1 (centres unmarked) [Compound 36],80 to 100%,0 to 49%,80 to 100%,0 to 49%,80 to 100%,80 to 100%,
